Test results: patent US8183201B2 (priority 2006, dated 2012)

What was measured:
TNF = type: binding
integrin α5β1 = biological target: T1, integrin α5β1 (Homo sapiens, UniProt P05556+P08648); type: cell-based
T1 construct: Human erythroleukemia K562 cells were purchased from ATCC; host or cells: K562

[1] = mouse, in vivo, iv, 30 mg/kg
VEGF = type: binding
Leptin = biological target: T2, Leptin (Homo sapiens, UniProt P48357); type: binding
T2 construct: MDS Pharma services, Taipei, Taiwan (contract assay)
T2 sequence (P48357 22-1165): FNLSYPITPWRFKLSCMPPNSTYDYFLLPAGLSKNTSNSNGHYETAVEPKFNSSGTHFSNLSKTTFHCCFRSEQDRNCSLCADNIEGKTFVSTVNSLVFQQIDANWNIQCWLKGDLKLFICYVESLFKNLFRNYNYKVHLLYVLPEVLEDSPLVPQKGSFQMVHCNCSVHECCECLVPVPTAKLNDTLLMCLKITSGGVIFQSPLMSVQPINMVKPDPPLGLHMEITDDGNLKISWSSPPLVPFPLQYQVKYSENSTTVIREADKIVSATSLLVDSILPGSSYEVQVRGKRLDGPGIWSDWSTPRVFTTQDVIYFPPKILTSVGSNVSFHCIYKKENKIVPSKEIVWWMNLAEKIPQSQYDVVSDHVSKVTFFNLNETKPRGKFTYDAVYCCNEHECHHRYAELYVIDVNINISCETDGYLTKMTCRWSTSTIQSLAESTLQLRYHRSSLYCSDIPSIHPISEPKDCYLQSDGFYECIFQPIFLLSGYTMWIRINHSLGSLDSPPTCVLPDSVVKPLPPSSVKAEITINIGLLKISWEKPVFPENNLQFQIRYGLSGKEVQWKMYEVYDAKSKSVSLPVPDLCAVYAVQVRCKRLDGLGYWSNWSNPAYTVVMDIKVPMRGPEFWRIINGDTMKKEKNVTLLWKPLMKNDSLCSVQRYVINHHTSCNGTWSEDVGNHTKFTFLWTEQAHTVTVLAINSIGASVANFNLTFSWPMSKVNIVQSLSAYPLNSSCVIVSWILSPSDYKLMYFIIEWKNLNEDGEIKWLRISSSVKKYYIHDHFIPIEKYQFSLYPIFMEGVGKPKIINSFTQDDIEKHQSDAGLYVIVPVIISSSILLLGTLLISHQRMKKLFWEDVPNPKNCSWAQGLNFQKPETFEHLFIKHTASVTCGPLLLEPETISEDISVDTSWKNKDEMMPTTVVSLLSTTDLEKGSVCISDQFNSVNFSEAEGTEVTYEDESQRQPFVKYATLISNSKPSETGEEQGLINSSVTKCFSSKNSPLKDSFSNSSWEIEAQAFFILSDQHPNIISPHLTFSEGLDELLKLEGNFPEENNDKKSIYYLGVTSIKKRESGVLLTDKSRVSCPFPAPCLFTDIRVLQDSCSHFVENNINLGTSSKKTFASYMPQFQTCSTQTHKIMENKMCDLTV

Insulin = biological target: T3, Insulin (Rattus norvegicus, UniProt P15127); type: binding
T3 construct: MDS Pharma services, Taipei, Taiwan (contract assay)

[2] = tested on: Human prostate adenocarcinoma PC-3 cells; design: species or system SCID mice; details: mouse, in vivo

T1 sequence (P08648 42-894 limits assumed): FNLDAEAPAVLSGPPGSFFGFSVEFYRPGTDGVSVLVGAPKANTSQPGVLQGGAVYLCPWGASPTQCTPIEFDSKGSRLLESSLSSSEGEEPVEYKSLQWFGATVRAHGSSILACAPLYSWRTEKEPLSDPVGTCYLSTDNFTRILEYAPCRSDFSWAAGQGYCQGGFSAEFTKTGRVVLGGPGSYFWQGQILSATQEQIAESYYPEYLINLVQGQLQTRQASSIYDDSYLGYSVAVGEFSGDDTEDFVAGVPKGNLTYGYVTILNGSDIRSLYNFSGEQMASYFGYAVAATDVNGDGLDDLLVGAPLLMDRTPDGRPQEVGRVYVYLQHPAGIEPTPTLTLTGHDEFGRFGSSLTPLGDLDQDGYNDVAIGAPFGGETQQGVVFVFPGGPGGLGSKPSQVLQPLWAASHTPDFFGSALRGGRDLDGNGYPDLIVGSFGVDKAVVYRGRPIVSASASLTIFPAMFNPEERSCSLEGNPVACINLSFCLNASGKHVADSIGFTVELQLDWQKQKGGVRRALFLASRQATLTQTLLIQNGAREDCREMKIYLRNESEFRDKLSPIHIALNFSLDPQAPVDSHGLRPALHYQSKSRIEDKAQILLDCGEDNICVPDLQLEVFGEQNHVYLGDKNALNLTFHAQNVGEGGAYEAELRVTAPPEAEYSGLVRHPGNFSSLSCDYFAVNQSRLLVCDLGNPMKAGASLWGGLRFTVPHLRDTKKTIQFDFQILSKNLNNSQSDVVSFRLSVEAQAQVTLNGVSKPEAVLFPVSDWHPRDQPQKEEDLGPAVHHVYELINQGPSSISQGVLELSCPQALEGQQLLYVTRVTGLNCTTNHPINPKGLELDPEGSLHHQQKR
T1 sequence (P08648 895-1049 partner limits assumed): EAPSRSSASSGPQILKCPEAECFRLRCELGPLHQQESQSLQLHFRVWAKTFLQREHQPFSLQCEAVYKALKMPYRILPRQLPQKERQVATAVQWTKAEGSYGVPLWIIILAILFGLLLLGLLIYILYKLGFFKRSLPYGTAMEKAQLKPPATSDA
T1 sequence (P05556 21-798): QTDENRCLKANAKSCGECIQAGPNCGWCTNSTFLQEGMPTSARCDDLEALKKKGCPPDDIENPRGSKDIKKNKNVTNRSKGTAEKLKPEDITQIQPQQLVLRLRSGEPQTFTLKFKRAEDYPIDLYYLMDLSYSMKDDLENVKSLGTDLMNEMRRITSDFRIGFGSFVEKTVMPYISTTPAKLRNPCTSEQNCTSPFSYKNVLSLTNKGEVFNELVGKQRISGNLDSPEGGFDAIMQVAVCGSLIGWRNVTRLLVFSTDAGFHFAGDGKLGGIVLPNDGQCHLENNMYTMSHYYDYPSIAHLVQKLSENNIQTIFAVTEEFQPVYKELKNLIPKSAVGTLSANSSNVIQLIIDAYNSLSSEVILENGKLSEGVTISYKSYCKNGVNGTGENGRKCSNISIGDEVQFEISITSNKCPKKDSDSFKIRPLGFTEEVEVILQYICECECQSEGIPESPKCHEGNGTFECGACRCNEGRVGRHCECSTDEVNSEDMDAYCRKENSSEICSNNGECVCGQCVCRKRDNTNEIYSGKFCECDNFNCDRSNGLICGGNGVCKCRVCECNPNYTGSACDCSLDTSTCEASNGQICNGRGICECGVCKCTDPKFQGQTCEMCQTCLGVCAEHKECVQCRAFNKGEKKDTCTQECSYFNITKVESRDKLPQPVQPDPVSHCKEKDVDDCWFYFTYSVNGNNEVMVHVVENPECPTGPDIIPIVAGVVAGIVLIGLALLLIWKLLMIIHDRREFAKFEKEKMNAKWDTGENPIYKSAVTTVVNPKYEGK
T3 sequence (P15127 27-1383): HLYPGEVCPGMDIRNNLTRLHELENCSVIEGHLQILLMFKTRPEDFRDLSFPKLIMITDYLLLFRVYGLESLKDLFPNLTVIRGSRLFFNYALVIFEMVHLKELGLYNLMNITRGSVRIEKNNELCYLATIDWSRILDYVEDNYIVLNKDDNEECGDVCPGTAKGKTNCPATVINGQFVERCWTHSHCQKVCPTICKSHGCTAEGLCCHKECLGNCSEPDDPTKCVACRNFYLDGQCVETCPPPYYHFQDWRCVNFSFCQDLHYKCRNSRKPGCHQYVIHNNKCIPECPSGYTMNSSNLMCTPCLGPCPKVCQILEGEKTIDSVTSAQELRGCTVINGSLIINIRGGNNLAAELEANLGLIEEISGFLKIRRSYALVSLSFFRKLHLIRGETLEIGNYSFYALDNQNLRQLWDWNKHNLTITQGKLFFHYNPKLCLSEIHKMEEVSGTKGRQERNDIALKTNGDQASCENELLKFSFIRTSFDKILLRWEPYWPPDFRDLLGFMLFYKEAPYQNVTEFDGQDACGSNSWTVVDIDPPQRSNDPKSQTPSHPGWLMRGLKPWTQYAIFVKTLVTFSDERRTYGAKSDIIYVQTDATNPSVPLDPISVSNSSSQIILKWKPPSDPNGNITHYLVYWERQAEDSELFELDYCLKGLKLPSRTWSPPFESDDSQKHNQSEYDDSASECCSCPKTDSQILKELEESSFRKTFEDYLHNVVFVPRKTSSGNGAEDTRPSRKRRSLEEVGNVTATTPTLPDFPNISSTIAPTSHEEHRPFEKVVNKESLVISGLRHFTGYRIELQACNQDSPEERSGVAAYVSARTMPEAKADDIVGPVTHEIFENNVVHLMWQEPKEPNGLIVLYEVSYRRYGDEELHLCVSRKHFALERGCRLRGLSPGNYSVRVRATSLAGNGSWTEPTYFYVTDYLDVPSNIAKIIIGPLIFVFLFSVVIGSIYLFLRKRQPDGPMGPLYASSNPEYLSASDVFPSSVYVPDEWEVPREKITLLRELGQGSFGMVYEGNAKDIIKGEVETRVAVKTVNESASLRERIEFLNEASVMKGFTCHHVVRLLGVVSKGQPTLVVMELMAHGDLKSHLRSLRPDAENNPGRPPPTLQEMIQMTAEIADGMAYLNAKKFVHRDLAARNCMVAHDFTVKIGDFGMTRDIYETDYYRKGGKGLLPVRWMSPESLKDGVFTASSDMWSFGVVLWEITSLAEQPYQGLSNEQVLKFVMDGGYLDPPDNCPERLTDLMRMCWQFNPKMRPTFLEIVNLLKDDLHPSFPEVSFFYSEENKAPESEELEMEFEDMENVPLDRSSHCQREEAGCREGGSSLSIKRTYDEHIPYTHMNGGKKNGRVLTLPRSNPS

With “RD: rhodostomin variant having a RGD motif variant ^48PRLDMP^53, SEQ ID NO: 36” the “Inhibition, TNF” value (TNF) was 4%, the “increase of IC50 in inhibition of integrin α5β1 as compared to Rho” value (integrin α5β1) was greater than 10 fold and the survival of mice [1] was “did not affect the survival of mice”. For the same substance, the “Inhibition, VEGF” value (VEGF) was −14%, the “Inhibition, Leptin” value (Leptin) was 1% and the “Inhibition, Insulin” value (Insulin) was −6%. For the same substance, the “PC-3 tumor-induced osteolysis (radiographs)” value [2] was “inhibited osteolysis”, the “inhibition in tumor cell-induced swelling in hind legs” value [2] was 43.8±4.1% and the “tumor-induced decrease in body weight” value [2] was “prevented the loss of body weight”. The “tumor-induced increase in C-terminal telopeptides of type-I collagen” value [2] was “inhibited a tumor-induced increase in C-terminal telopeptides”, the “tumor-induced increase in the serum calcium concentration (hypercalcemia)” value ([2]; 1.5 mg/kg) was “inhibited a tumor-induced increase in the serum calcium concentration” and the “tumor growth in legs (in words)” value ([2]; sc, 1.5 mg/kg) was “inhibited tumor growth”.
